Reference: patent US20110269811A1, “INHIBITORS OF SEMICARBAZIDE-SENSITIVE AMINE OXIDASE (SSAO) AND VAP-1 MEDIATED ADHESION USEFUL FOR TREATMENT AND PREVENTION OF DISEASES” (priority 2006, published 2011)

Key:
M3 (h) = molecular target: T1, M3 (h) (Homo sapiens, UniProt P20309); assay: Receptor binding screen, [^3H]4-DAMP; settings: 10 uM Concentration of Compound I-1-Z; read-out: Mean Value, percent inhibition of control specific binding: M3 (h)
T1 construct: expressed in transfected cells; host or cells: CHO cells

TNF-α (h) = assay: Receptor binding screen, [^125I]TNF-α, U-937 cells; design: species or system human; settings: 10 uM Concentration of Compound I-1-Z
B2 (h) = molecular target: T2, B2 (h) (Homo sapiens, UniProt P30411); assay: Receptor binding screen, [^3H]bradykinin; settings: 10 uM Concentration of Compound I-1-Z; read-out: Mean Value, percent inhibition of control specific binding: B2 (h)
T2 construct: expressed in transfected cells; host or cells: CHO cells

M1 (h) = molecular target: T3, M1 (h) (Homo sapiens, UniProt P11229); assay: Receptor binding screen, [^3H]pirenzepine; settings: 10 uM Concentration of Compound I-1-Z; read-out: Mean Value, percent inhibition of control specific binding: M1 (h)
T3 construct: expressed in transfected cells; host or cells: CHO cells
Description: (§1) For Table 4 below, the specific ligand binding to the receptors is defined as the difference between the total binding and the nonspecific binding determined in the presence of an excess of unlabelled ligand. The results are expressed as a percent inhibition of control specific binding obtained in the presence of Compound I-1-Z. The IC50 values (concentration causing a half-maximal inhibition of control specific binding) and Hill coefficients (nH) were determined by non-linear regression analysis of the competition curves using Hill equation curve fitting. The inhibition constants (Ki) were calculated from the Cheng Prusoff equation (Ki=IC50/(1+(L/KD)), where L=concentration of radioligand in the assay, and KD=affinity of the radioligand for the receptor). In each experiment, the respective reference compound was tested concurrently with Compound I-1-Z in order to assess the assay suitability.

5-HT2C (h) = molecular target: T4, 5-HT2C (h) (Homo sapiens, UniProt P28335); assay: Receptor binding screen, [^3H]mesulergine; settings: 10 uM Concentration of Compound I-1-Z; read-out: Mean Value, percent inhibition of control specific binding: 5-HT2C (h)
T4 construct: expressed in transfected cells; host or cells: CHO cells

Y2 (h) = molecular target: T5, Y2 (h) (Homo sapiens, UniProt P49146); assay: Receptor binding screen, [^125I]peptide YY, KAN-TS cells; settings: 10 uM Concentration of Compound I-1-Z; read-out: Mean Value, percent inhibition of control specific binding: Y2 (h)
T5 construct: KAN-TS cells; endogenous in cells; host or cells: KAN-TS cells

SK^+Ca channel = assay: Receptor binding screen, [^125I]apamin; design: species or system rat; settings: 10 uM Concentration of Compound I-1-Z
Description: as §1

5-HT2A (h) = molecular target: T6, 5-HT2A (h) (Homo sapiens, UniProt P28223); assay: Receptor binding screen, [^3H]ketanserin; settings: 10 uM Concentration of Compound I-1-Z; read-out: Mean Value, percent inhibition of control specific binding: 5-HT2A (h)
T6 construct: expressed in transfected cells; host or cells: HEK-293 cells

CCR1 (h) = molecular target: T7, CCR1 (h) (Homo sapiens, UniProt P32246); assay: Receptor binding screen, [^125I]MIP-1α; settings: 10 uM Concentration of Compound I-1-Z; read-out: Mean Value, percent inhibition of control specific binding: CCR1 (h)
T7 construct: expressed in transfected cells; host or cells: HEK-293 cells

PACAP (PAC1) (h) = molecular target: T8, PACAP (PAC1) (h) (Homo sapiens, UniProt P41586); assay: Receptor binding screen, [^125I]PACAP1-27; settings: 10 uM Concentration of Compound I-1-Z; read-out: Mean Value, percent inhibition of control specific binding: PACAP (PAC1) (h)
T8 construct: expressed in transfected cells; host or cells: CHO cells

GABA (non-selective) = assay: Receptor binding screen, [^3H]GABA; design: species or system rat; settings: 10 uM Concentration of Compound I-1-Z
Description: as §1

Cl^− channel = assay: Receptor binding screen, [^35S]TBPS; design: species or system rat; settings: 10 uM Concentration of Compound I-1-Z
H1 (h) = molecular target: T9, H1 (h) (Homo sapiens, UniProt P35367); assay: Receptor binding screen, [^3H]pyrilamine; settings: 10 uM Concentration of Compound I-1-Z; read-out: Mean Value, percent inhibition of control specific binding: H1 (h)
T9 construct: expressed in transfected cells; host or cells: HEK-293 cells

ETA (h) = molecular target: T10, ETA (h) (Homo sapiens, UniProt P25101); assay: Receptor binding screen, [^125I]endothelin-1; settings: 10 uM Concentration of Compound I-1-Z; read-out: Mean Value, percent inhibition of control specific binding: ETA (h)
T10 construct: expressed in transfected cells; host or cells: CHO cells

α2 (non-selective) = assay: Receptor binding screen, [^3H]RX 821002; design: species or system rat; settings: 10 uM Concentration of Compound I-1-Z
Description: as §1

NK2 (h) = molecular target: T11, NK2 (h) (Homo sapiens, UniProt P21452); assay: Receptor binding screen, [^125I]NKA; settings: 10 uM Concentration of Compound I-1-Z; read-out: Mean Value, percent inhibition of control specific binding: NK2 (h)
T11 construct: expressed in transfected cells; host or cells: CHO cells

PCP = assay: Receptor binding screen, [^3H]TCP; design: species or system rat; settings: 10 uM Concentration of Compound I-1-Z
CCKA (h) (CCK1) = molecular target: T12, CCKA (h) (CCK1) (Homo sapiens, UniProt P32238); assay: Receptor binding screen, [^125I]CCK-8; settings: 10 uM Concentration of Compound I-1-Z; read-out: Mean Value, percent inhibition of control specific binding: CCKA (h) (CCK1)
T12 construct: expressed in transfected cells; host or cells: CHO cells

α1 (non-selective) = assay: Receptor binding screen, [^3H]prazosin; design: species or system rat; settings: 10 uM Concentration of Compound I-1-Z
Description: as §1

CCKB (h) (CCK2) = molecular target: T13, CCKB (h) (CCK2) (Homo sapiens, UniProt P32239); assay: Receptor binding screen, [^125I]CCK-8; settings: 10 uM Concentration of Compound I-1-Z; read-out: Mean Value, percent inhibition of control specific binding: CCKB (h) (CCK2)
T13 construct: expressed in transfected cells; host or cells: CHO cells

5-HT5A (h) = molecular target: T14, 5-HT5A (h) (Homo sapiens, UniProt P47898); assay: Receptor binding screen, [^3H]LSD; settings: 10 uM Concentration of Compound I-1-Z; read-out: Mean Value, percent inhibition of control specific binding: 5-HT5A (h)
T14 construct: expressed in transfected cells; host or cells: CHO cells

CGRP (h) = molecular target: T15, CGRP (h) (Homo sapiens, UniProt O60894+Q16602); assay: Receptor binding screen, [^125I]hCGRPα; settings: 10 uM Concentration of Compound I-1-Z; read-out: Mean Value, percent inhibition of control specific binding: CGRP (h)
T15 construct: expressed in transfected cells; host or cells: CHO cells

[1] = molecular target: T16, human diamine oxidase (DAO) (Homo sapiens, UniProt P19801); assay: Inhibition of diamine oxidase, AMPLEX Red assay, putrescine substrate; assay type: biochemical; settings: recombinant DAO expressed in CHO cells
T16 construct: made in house; host or cells: CHO cells (Flp-In, pcDNA5/FRT); serum-free conditioned medium used directly
Description: Compounds of the invention can be tested for their inhibitory activity against diamine oxidase (DAO). Recombinant DAO was expressed in CHO cells using standard molecular biology methods as described herein. […] The serum containing media was removed and the cells were switched to CHO SFM serum free media for 48 hours. […] The media was collected and used directly as a source of diamine oxidase for enzyme analysis.

σ (non-selective) = assay: Receptor binding screen, [^3H]DTG; design: species or system rat; settings: 10 uM Concentration of Compound I-1-Z
Description: as §1

[2] = test system: Ca^2+ channel (L, verapamil site) (phenylalkylamines); assay: Receptor binding screen, [^3H](−)D 888; design: species or system rat; settings: 10 uM Concentration of Compound I-1-Z

T4 sequence (P28335 33-458): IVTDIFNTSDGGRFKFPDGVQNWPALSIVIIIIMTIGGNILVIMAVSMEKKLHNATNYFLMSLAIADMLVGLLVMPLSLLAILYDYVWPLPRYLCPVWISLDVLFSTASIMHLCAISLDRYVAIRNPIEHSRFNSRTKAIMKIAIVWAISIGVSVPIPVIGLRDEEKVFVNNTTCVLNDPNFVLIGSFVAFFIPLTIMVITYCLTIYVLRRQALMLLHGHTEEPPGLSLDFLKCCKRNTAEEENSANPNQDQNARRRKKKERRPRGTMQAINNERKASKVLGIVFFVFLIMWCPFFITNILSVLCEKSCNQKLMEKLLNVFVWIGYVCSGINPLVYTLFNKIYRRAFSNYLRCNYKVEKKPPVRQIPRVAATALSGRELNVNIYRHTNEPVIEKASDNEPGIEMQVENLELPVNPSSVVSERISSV
T2 sequence (P30411 whole entry): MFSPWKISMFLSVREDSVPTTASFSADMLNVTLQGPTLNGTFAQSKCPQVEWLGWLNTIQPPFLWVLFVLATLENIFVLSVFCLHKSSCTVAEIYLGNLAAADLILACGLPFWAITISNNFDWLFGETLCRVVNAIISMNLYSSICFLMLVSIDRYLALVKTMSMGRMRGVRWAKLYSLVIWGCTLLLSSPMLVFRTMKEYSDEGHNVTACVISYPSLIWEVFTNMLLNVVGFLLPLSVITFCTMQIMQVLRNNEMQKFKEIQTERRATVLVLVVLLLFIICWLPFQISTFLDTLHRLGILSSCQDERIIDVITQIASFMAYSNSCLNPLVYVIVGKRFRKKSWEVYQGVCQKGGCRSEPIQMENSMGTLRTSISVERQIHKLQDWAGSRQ
T11 sequence (P21452 whole entry): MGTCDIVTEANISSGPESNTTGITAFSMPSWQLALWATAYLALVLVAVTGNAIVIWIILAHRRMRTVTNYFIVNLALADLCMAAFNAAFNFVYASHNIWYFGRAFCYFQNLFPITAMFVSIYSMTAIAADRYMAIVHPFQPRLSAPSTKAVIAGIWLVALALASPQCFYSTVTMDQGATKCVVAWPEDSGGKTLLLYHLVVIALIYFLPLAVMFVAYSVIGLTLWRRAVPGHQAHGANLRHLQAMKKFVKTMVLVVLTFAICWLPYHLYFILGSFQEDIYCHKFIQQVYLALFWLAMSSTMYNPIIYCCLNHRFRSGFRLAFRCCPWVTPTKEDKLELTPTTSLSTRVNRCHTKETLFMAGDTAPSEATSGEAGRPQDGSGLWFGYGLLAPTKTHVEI
T9 sequence (P35367 whole entry): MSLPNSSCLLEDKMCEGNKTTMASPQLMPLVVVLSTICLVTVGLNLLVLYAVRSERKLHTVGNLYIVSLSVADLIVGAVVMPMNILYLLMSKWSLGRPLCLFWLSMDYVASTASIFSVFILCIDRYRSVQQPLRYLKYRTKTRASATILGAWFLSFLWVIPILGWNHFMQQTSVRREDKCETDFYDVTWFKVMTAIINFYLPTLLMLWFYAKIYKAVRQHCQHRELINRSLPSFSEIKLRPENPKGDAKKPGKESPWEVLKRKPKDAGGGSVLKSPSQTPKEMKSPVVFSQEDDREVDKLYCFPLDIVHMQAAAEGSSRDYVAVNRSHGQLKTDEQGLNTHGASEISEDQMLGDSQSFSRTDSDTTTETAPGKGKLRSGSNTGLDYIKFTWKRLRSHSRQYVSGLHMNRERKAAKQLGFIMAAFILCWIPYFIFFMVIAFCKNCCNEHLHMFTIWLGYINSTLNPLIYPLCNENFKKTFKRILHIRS
T16 sequence (P19801 20-751): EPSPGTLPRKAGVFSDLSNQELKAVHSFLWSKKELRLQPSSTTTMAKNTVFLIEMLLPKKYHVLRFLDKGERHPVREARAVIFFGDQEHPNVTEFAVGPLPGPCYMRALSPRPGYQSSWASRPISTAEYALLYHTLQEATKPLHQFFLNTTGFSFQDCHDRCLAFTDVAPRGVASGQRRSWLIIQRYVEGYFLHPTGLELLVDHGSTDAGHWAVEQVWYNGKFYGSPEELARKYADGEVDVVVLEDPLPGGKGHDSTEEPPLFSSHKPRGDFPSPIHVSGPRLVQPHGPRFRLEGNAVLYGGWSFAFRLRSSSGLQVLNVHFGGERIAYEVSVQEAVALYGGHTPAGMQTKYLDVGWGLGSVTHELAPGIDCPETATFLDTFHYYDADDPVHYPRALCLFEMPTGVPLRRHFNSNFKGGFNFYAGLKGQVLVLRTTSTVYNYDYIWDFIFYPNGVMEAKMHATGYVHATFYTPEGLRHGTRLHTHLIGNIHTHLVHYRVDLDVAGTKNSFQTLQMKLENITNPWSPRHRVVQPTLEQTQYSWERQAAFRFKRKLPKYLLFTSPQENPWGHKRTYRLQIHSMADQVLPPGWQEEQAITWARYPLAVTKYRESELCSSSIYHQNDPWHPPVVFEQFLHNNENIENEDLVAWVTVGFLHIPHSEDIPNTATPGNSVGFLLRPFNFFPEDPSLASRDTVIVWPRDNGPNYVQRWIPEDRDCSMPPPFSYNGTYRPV
T5 sequence (P49146 whole entry): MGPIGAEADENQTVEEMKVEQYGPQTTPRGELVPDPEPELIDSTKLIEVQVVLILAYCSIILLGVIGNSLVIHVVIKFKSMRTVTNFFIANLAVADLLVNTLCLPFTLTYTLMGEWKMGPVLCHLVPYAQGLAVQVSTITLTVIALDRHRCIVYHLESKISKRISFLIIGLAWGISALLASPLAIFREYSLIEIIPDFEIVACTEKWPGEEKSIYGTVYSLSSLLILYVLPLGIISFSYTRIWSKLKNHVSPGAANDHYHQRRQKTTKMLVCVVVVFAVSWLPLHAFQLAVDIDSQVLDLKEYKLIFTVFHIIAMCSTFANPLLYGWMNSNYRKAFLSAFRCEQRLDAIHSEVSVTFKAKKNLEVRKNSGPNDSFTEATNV
T14 sequence (P47898 whole entry): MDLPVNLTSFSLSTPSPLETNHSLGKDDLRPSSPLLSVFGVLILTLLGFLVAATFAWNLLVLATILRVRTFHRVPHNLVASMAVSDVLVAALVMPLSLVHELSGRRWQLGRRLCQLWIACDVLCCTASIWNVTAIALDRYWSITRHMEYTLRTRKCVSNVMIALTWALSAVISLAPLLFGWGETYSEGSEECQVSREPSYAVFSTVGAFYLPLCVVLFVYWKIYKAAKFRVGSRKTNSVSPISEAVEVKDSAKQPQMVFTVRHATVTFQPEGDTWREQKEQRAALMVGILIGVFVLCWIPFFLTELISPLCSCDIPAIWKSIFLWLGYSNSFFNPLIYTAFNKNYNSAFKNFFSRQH
T15 sequence (Q16602 23-461): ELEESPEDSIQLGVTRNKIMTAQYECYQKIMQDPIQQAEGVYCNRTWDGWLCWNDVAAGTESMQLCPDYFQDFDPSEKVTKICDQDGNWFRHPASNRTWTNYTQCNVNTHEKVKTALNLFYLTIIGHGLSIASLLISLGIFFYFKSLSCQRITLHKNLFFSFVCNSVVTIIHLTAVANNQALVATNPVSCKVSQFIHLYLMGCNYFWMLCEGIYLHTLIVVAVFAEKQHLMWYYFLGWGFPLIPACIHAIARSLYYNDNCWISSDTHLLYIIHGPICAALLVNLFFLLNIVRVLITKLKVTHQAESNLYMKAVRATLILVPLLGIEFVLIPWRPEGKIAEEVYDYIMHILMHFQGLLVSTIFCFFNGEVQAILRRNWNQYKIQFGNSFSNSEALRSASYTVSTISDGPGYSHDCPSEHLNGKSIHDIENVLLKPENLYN
T15 sequence (O60894 27-148): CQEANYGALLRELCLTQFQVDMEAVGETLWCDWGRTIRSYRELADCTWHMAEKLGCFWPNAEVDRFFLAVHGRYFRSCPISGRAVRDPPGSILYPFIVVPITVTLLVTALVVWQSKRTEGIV
T6 sequence (P28223 whole entry): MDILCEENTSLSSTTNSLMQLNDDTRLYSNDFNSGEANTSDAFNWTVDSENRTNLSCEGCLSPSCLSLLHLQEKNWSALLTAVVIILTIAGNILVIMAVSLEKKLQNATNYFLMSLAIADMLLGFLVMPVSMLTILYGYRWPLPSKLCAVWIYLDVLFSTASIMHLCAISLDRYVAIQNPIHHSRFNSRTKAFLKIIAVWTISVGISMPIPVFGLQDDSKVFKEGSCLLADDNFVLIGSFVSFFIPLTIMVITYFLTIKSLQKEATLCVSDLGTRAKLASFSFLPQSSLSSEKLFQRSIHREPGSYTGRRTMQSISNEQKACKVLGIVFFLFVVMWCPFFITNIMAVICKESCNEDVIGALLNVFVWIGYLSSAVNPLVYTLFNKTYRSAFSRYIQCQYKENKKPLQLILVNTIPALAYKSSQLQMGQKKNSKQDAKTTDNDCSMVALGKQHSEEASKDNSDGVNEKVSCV
T8 sequence (P41586 21-468): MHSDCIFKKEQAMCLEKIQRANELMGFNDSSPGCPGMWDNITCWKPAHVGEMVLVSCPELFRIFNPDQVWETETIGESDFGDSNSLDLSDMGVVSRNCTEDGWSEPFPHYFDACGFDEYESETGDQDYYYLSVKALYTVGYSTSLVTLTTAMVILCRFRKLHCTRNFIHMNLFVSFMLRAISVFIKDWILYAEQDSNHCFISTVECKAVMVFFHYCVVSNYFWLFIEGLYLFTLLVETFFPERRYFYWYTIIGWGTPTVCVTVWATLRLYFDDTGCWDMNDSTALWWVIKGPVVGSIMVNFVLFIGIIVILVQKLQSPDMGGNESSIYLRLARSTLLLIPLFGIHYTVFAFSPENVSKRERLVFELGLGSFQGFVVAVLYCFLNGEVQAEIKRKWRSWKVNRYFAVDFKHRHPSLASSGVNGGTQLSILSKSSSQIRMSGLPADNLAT

COc1ccc(C/C(=C/F)CN)cc1.Cl [Compound I-1-Z, (Z)-3-Fluoro-2-(4-methoxybenzyl)-allylamine hydrochloride]
inhibition at 10 µM (M3 (h)): 16% | Mean Value, percent inhibition of control specific binding: TNF-α (h) (TNF-α (h)): −6% | inhibition at 10 µM (B2 (h)): 1% | inhibition at 10 µM (M1 (h)): 28% | inhibition at 10 µM (5-HT2C (h)): 21% | inhibition at 10 µM (Y2 (h)): 11% | Mean Value, percent inhibition of control specific binding: SK^+Ca channel (SK^+Ca channel): 4% | inhibition at 10 µM (5-HT2A (h)): -4% | inhibition at 10 µM (CCR1 (h)): 3% | inhibition at 10 µM (PACAP (PAC1) (h)): 5% | Mean Value, percent inhibition of control specific binding: GABA (non-selective) (GABA (non-selective)): −19% | Mean Value, percent inhibition of control specific binding: Cl^− channel (Cl^− channel): −6% | inhibition at 10 µM (H1 (h)): 3% | inhibition at 10 µM (ETA (h)): 8% | Mean Value, percent inhibition of control specific binding: α2 (non-selective) (α2 (non-selective)): 23% | inhibition at 10 µM (NK2 (h)): 3% | Mean Value, percent inhibition of control specific binding: PCP (PCP): −12% | inhibition at 10 µM (CCKA (h) (CCK1)): -13% | Mean Value, percent inhibition of control specific binding: α1 (non-selective) (α1 (non-selective)): 8% | inhibition at 10 µM (CCKB (h) (CCK2)): -5% | inhibition at 10 µM (5-HT5A (h)): -3% | inhibition at 10 µM (CGRP (h)): -7% | IC50 [1]: 92 µM | Mean Value, percent inhibition of control specific binding: σ (non-selective) (σ (non-selective)): 24% | Mean Value, percent inhibition of control specific binding: Ca^2+ channel (L, verapamil site) (phenylalkylamines) [2]: 14%
